pIC50: −log10 of the molar value. *1 amine or outer side, *2 acyl side, *3 side chain or, on linkers, in order; H or OH if unused. Where a SMILES comes first, the peptide text is derived from it. Bridges are numbered along the chain shown (N, C = ends). [ ]: non-standard residue; d: D form. The star is where a group is joined. ξ: configuration not given here. Phe(3-CF3) = N[C@@H](Cc1cccc(C(F)(F)F)c1)C(=O)O; Phe(4-COOH) = N[C@@H](Cc1ccc(C(=O)O)cc1)C(=O)O; Bip = N[C@@H](Cc1ccc(-c2ccccc2)cc1)C(=O)O; Phe(3-Me) = Cc1cccc(C[C@H](N)C(=O)O)c1; βAsp = O=C(O)[C@H](CC(=O)[*:2])N[*:1]; Val(3-OH) = CC(C)(O)[C@H](N)C(=O)O; X14 = O=C([C@H](CCCCO)N[*:1])[*:2]; 4Pal = N[C@@H](Cc1ccncc1)C(=O)O; Cha = N[C@@H](CC1CCCCC1)C(=O)O; Cit = NC(=O)NCCC[C@H](N)C(=O)O; Thr(3ξ) = CC(O)[C@H](N)C(=O)O; Carboxymethyl = O=C(O)C*; NMeA = CN[C@@H](C)C(=O)O; Orn = NCCC[C@H](N)C(=O)O; Aun = NCCCCCCCCCCC(=O)O; Dab = NCC[C@H](N)C(=O)O; Dap = NC[C@H](N)C(=O)O; AEEA = NCCOCCOCC(=O)O; ξV = CC(C)C(N)C(=O)O

T1 sequence (Q15116 25-288): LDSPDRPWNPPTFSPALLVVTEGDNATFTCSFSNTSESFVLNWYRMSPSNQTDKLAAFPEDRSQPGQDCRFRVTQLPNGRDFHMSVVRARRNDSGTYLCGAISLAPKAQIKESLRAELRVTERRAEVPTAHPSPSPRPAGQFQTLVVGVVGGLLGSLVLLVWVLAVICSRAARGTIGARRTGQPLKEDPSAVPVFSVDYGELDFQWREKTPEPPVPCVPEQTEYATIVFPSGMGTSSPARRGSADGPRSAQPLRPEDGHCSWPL

The first assay concerns the target T1, PD-1/PD-L1 interaction (PE-labeled human PD-L1-Ig binding to Jurkat cell line over-expressing human PD-1) (Homo sapiens, UniProt Q15116).
T1 construct: expressed in transfected cells; host or cells: Jurkat
Description: Jurkat-PD-1 Cell Binding High-Content Screening Assay (CBA). As to conditions: Jurkat-hPD-1 cells, PE-labeled PD-L1-Ig 20 nM final; read-out: Jurkat HPD1 PDL1 IC50. An outline of the steps:
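Jurkat cells overexpressing human PD-1 (8×10^3/well, DMEM + 10% FCS) preincubated with compound 2 h at 37 °C, then PE-labelled human PD-L1-Ig (20 nM final) for 1 h. Cells fixed in paraformaldehyde with Hoechst 33342; bound PD-L1 quantified by high-content imaging.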
Turning to `CC(C)C[C@@H]1NC(=O)[C@H](Cc2c[nH]c3ccccc23)NC(=O)[C@H](CC(=O)O)NC(=O)[C@H](Cc2ccncc2)NC(=O)[C@H](Cc2ccc(OCC(=O)O)cc2)NC(=O)CSC[C@@H](C(=O)N[C@@H](CCCN)C(=O)NCCCCCCCCCCC(=O)O)NC(=O)[C@@H](CCC(N)=O)NC(=O)[C@H](C(C)C)NC(=O)[C@H](CC2CCCCC2)NC(=O)[C@H](CCN)NC(=O)[C@@H](CC(C)C)NC(=O)[C@H](C)N(C)C(=O)[C@H](C(C)C)NC(=O)[C@H](Cc2ccc(-c3ccccc3)cc2)NC1=O` [Example 1344] ({CH2CO}-Y(Carboxymethyl)[4Pal]DWL[Bip]V[NMeA][dL][Dab][Cha]V[dQ]C[Orn][Aun]-OH; thioether N-14), the pIC50 (commonly −log10 of the IC50, conventionally taken in molar units) is 7.16. On the same count and under the same terms, to `CC(C)C[C@@H]1NC(=O)[C@H](Cc2c[nH]c3ccccc23)NC(=O)[C@H](CC(=O)O)NC(=O)[C@H](Cc2ccncc2)NC(=O)[C@H](Cc2ccc(OCC(=O)O)cc2)NC(=O)CSC[C@@H](C(=O)N[C@@H](Cc2c[nH]cn2)C(=O)NCCCCCCCCCCC(=O)O)NC(=O)[C@H](CO)NC(=O)[C@H](C(C)C)NC(=O)[C@H](CC2CCCCC2)NC(=O)[C@H](CCN)NC(=O)[C@@H](CC(C)C)NC(=O)[C@H](C)N(C)C(=O)[C@H](C(C)C)NC(=O)[C@H](Cc2ccc(-c3ccccc3)cc2)NC1=O` [Example 1087] ({CH2CO}-Y(Carboxymethyl)[4Pal]DWL[Bip]V[NMeA][dL][Dab][Cha]VSCH[Aun]-OH; thioether N-14) belongs 7.48; to `Cc1cccc(C[C@@H]2NC(=O)[C@H](CC(=O)O)NC(=O)[C@H](Cc3ccc(C(=O)O)cc3)NC(=O)[C@H](Cc3ccc(OCC(=O)O)cc3)NC(=O)CSC[C@@H](C(=O)NCCOCCOCC(=O)NCCCCCCCCCCC(=O)O)NC(=O)[C@H](CCCCO)NC(=O)[C@H](C(C)C)NC(=O)[C@H](CC3CCCCC3)NC(=O)[C@H](CCN)NC(=O)[C@@H](CC(C)C)NC(=O)[C@H](C)N(C)C(=O)[C@H](Cc3ccc(O)cc3)NC(=O)[C@H](Cc3ccc(-c4ccccc4)cc3)NC(=O)[C@H](C(C)C)NC2=O)c1` [Example 2213] ({CH2CO}-Y(Carboxymethyl)[Phe(4-COOH)]D[Phe(3-Me)]V[Bip]Y[NMeA][dL][Dab][Cha]V[X14]C[AEEA][Aun]-OH; thioether N-14), 7.84. Turning to `Cc1cccc(C[C@@H]2NC(=O)[C@H](CC(=O)O)NC(=O)[C@H](Cc3ccc(OCC(=O)O)cc3)NC(=O)[C@H](CN)NC(=O)CSC[C@@H](C(=O)N[C@@H](CC(=O)O)C(=O)NCCCCCCCCCCC(=O)O)NC(=O)[C@H](CO)NC(=O)[C@H](C(C)C)NC(=O)[C@H](CC(C)C)NC(=O)[C@H](CC(N)=O)NC(=O)[C@@H](CC(C)C)NC(=O)[C@H](C)N(C)C(=O)[C@H](C(C)C)NC(=O)[C@H](Cc3ccc(-c4ccccc4)cc3)NC(=O)[C@H](CC(C)C)NC2=O)c1` [Example 1067] ({CH2CO}-[Dap]Y(Carboxymethyl)D[Phe(3-Me)]L[Bip]V[NMeA][dL]NLVSCD[Aun]-OH; thioether N-14), the negative logarithm of the IC50 (pIC50) was 6.97. As to `CC(C)C[C@@H]1NC(=O)[C@H](Cc2c[nH]c3ccccc23)NC(=O)[C@H](CC(=O)O)NC(=O)[C@H](Cc2ccc(OCC(=O)O)cc2)NC(=O)[C@H](Cc2ccncc2)NC(=O)CSC[C@@H](C(=O)N[C@@H](CC(N)=O)C(=O)N[C@@H](CC(=O)NCCOCCOCC(=O)NCCCCCCCCCCC(=O)O)C(=O)O)NC(=O)[C@H](CO)NC(=O)[C@H](C(C)C)NC(=O)[C@H](CC2CCCCC2)NC(=O)[C@H](CC(N)=O)NC(=O)[C@@H](CC(C)C)NC(=O)[C@H](C)N(C)C(=O)[C@H](C(C)C)NC(=O)[C@H](Cc2ccc(-c3ccccc3)cc2)NC1=O` [Example 2022] ({CH2CO}-[4Pal]Y(Carboxymethyl)DWL[Bip]V[NMeA][dL]N[Cha]VSCN[βAsp][AEEA][Aun]-OH; thioether N-14), the pIC50 was 6.89. Same read-out and setting: next, `Cc1cccc(C[C@@H]2NC(=O)[C@H](CC(=O)O)NC(=O)[C@H](Cc3ccc(OCC(=O)O)cc3)NC(=O)[C@H](CC(N)=O)NC(=O)CSC[C@@H](C(=O)NCCCCCCCCCCC(=O)O)NC(=O)[C@H](CCCNC(N)=O)NC(=O)[C@H](C(C)C)NC(=O)[C@H](CC3CCCCC3)NC(=O)[C@H](CCN)NC(=O)[C@@H](CC(C)C)NC(=O)[C@H](C)N(C)C(=O)C(C(C)C)NC(=O)[C@H](Cc3ccc(-c4ccccc4)cc3)NC(=O)[C@H](CC(C)C)NC2=O)c1` (stereo partly drawn) [Example 2248] ({CH2CO}-NY(Carboxymethyl)D[Phe(3-Me)]L[Bip][ξV][NMeA][dL][Dab][Cha]V[Cit]C[Aun]-OH; thioether N-14): 7.96; `CC(C)C[C@@H]1NC(=O)[C@H](Cc2c[nH]c3ccccc23)NC(=O)[C@H](CC(=O)O)NC(=O)[C@H](Cc2ccc(C(=O)O)cc2)NC(=O)[C@H](Cc2ccc(OCC(=O)O)cc2)NC(=O)CSC[C@@H](C(=O)N[C@H](CC(N)=O)C(=O)NCCCCCCCCCCC(=O)O)NC(=O)[C@H](CO)NC(=O)[C@H](C(C)C)NC(=O)[C@H](CC2CCCCC2)NC(=O)[C@H](CCN)NC(=O)[C@@H](CC(C)C)NC(=O)[C@H](C)N(C)C(=O)[C@H](C(C)C)NC(=O)[C@H](Cc2ccc(-c3ccccc3)cc2)NC1=O` [Example 2234] ({CH2CO}-Y(Carboxymethyl)[Phe(4-COOH)]DWL[Bip]V[NMeA][dL][Dab][Cha]VSC[dN][Aun]-OH; thioether N-14): 7.87; `CC(=O)NCCCC[C@@H]1NC(=O)[C@H](Cc2ccc(-c3ccccc3)cc2)NC(=O)[C@H](CC(C)C)NC(=O)[C@H](Cc2cccc(C)c2)NC(=O)[C@H](CC(=O)O)NC(=O)[C@H](Cc2ccc(OCC(=O)O)cc2)NC(=O)[C@H](Cc2ccc(OCC(=O)O)cc2)NC(=O)CSC[C@@H](C(=O)NCCOCCOCC(=O)NCCCCCCCCCCC(=O)O)NC(=O)[C@H](CCCCN)NC(=O)[C@H](C(C)C)NC(=O)[C@H](CC2CCCCC2)NC(=O)[C@H](CCN)NC(=O)[C@@H](CC(C)C)NC(=O)[C@H](C)N(C)C1=O` [Example 2223] ({CH2CO}-Y(Carboxymethyl)Y(Carboxymethyl)D[Phe(3-Me)]L[Bip]K(Ac)[NMeA][dL][Dab][Cha]VKC[AEEA][Aun]-OH; thioether N-14): 7.96. The same measure, in the same setting: next, `CC(C)C[C@@H]1NC(=O)[C@H](Cc2c[nH]c3ccccc23)NC(=O)[C@H](CC(=O)O)NC(=O)[C@H](Cc2ccncc2)NC(=O)[C@H](Cc2ccc(OCC(=O)O)cc2)NC(=O)CSC[C@@H](C(=O)N[C@@H](CCCN)C(=O)NCCCCCCCCCCC(=O)O)NC(=O)[C@H](CCC(N)=O)NC(=O)[C@H](C(C)C)NC(=O)[C@H](CC2CCCCC2)NC(=O)[C@H](CCN)NC(=O)[C@@H](CC(C)C)NC(=O)[C@H](C)N(C)C(=O)[C@H](C(C)C)NC(=O)[C@H](Cc2ccc(-c3ccccc3)cc2)NC1=O` [Example 1342] ({CH2CO}-Y(Carboxymethyl)[4Pal]DWL[Bip]V[NMeA][dL][Dab][Cha]VQC[Orn][Aun]-OH; thioether N-14): 7.74; `Cc1cccc(C[C@@H]2NC(=O)[C@H](CC(=O)O)NC(=O)[C@H](Cc3ccc(C(=O)O)cc3)NC(=O)[C@H](Cc3ccc(OCC(=O)O)cc3)NC(=O)CSC[C@@H](C(=O)N[C@@H](CCCN)C(=O)NCCCCCCCCCCC(=O)O)NC(=O)[C@H](CO)NC(=O)[C@H](C(C)C)NC(=O)[C@H](CC3CCCCC3)NC(=O)[C@H](CN)NC(=O)[C@@H](CC(C)C)NC(=O)[C@H](C)N(C)C(=O)[C@H](C(C)C)NC(=O)[C@H](Cc3ccc(-c4ccccc4)cc3)NC(=O)[C@H](CC(C)C)NC2=O)c1` [Example 2189] ({CH2CO}-Y(Carboxymethyl)[Phe(4-COOH)]D[Phe(3-Me)]L[Bip]V[NMeA][dL][Dap][Cha]VSC[Orn][Aun]-OH; thioether N-14): 7.54; `CC(C)C[C@@H]1NC(=O)[C@H](Cc2c[nH]c3ccccc23)NC(=O)[C@H](CC(=O)O)NC(=O)[C@H](Cc2ccc(C(=O)O)cc2)NC(=O)[C@H](Cc2ccc(OCC(=O)O)cc2)NC(=O)CSC[C@@H](C(=O)NCCOCCOCC(=O)NCCCCCCCCCCC(=O)O)NC(=O)[C@H](Cc2cnc[nH]2)NC(=O)[C@H](C(C)(C)O)NC(=O)[C@H](CC2CCCCC2)NC(=O)[C@H](CCN)NC(=O)[C@@H](CC(C)C)NC(=O)[C@H](C)N(C)C(=O)[C@H](C(C)C)NC(=O)[C@H](Cc2ccc(-c3ccccc3)cc2)NC1=O` [Example 1121] ({CH2CO}-Y(Carboxymethyl)[Phe(4-COOH)]DWL[Bip]V[NMeA][dL][Dab][Cha][Val(3-OH)]HC[AEEA][Aun]-OH; thioether N-14): 8.09.

Staying with this assay, now noted: PE-labeled PD-L1-Ig 20 nM final, Jurkat-hPD-1 cells; read-out: Jurkat HPD1 PDL1 IC50.
`CC(=O)NCCCC[C@@H]1NC(=O)[C@H](Cc2ccc(-c3ccccc3)cc2)NC(=O)[C@H](CC(C)C)NC(=O)[C@H](Cc2c[nH]c3ccccc23)NC(=O)[C@H](CC(=O)O)NC(=O)[C@H](Cc2ccc(OCC(=O)O)cc2)NC(=O)[C@H](Cc2ccc(OCC(=O)O)cc2)NC(=O)CSC[C@@H](C(=O)NCCOCCOCC(=O)NCCCCCCCCCCC(=O)O)NC(=O)[C@H](CO)NC(=O)[C@H](C(C)C)NC(=O)[C@H](CC2CCCCC2)NC(=O)[C@H](CCN)NC(=O)[C@@H](CC(C)C)NC(=O)[C@H](C)N(C)C1=O` [Example 2438] ({CH2CO}-Y(Carboxymethyl)Y(Carboxymethyl)DWL[Bip]K(Ac)[NMeA][dL][Dab][Cha]VSC[AEEA][Aun]-OH; thioether N-14): the pIC50 was 7.77. Same read-out and setting: next, `CC(C)C[C@H]1NC(=O)[C@H](C)N(C)C(=O)[C@H](Cc2ccc(C(=O)O)cc2)NC(=O)[C@H](Cc2ccc(-c3ccccc3)cc2)NC(=O)[C@H](Cc2ccc(C(=O)O)cc2)NC(=O)[C@H](Cc2cccc(C(F)(F)F)c2)NC(=O)[C@H](CC(=O)O)NC(=O)[C@H](Cc2ccc(C(=O)O)cc2)NC(=O)[C@H](C(C)O)NC(=O)CSC[C@@H](C(=O)N[C@@H](CCN)C(=O)NCCCCCCCCCCC(=O)O)NC(=O)[C@H](C(C)O)NC(=O)[C@H](C(C)(C)O)NC(=O)[C@H](CC2CCCCC2)NC(=O)[C@H](CCN)NC1=O` (stereo partly drawn) [Example 2573] ({CH2CO}-[Thr(3ξ)][Phe(4-COOH)]D[Phe(3-CF3)][Phe(4-COOH)][Bip][Phe(4-COOH)][NMeA][dL][Dab][Cha][Val(3-OH)][Thr(3ξ)]C[Dab][Aun]-OH; thioether N-14): 8.01.

The values are drawn from patent US20260070945A1, “MACROCYCLIC IMMUNOMODULATORS” (Bristol-Myers Squibb Company, priority 2022, published 2026).
